Experimental findings from paper PMC3145970, “Specific CLK Inhibitors from a Novel Chemotype for Regulation of Alternative Splicing” (Chemistry & Biology, 2011) are described below.

Like-named read-outs stand apart in the source and are kept apart here.

Common to all, as to assay: Thermal stability shift assay
What all share (type): binding

Assay [1] concerns the target T1, RSK3~C (Homo sapiens, UniProt Q15349).
T1 construct: RSK3~C 4.5 8.9 0.7 0.4 0.5 0.1 0.4
The settings on record: read-out: Tm shift RSK3~C. In outline:
(§1)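 Thermal denaturation is measured by SyproOrange fluorescence in a real-time PCR machine. Each sample holds 2 μM protein and 10 μM compound in 10 mM HEPES pH 7.5 with 500 mM NaCl.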

Assay [2] concerns the target T2, VRK1 (Homo sapiens, UniProt Q99986).
T2 sequence (Q99986 1-396): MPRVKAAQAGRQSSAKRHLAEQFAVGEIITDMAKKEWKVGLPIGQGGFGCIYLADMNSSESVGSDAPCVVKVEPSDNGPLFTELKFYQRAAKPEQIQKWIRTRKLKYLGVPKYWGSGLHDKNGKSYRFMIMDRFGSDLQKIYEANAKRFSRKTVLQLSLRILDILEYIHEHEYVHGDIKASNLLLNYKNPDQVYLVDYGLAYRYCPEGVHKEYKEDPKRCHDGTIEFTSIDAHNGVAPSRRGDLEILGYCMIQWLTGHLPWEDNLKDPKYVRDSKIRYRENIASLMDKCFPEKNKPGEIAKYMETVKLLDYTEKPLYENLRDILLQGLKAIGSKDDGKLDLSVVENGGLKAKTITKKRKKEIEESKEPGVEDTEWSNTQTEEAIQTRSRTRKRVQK
The settings on record: read-out: Tm shift VRK1. The method, boiled down: as §1

Assay [3] deals with T3, DAPK3 (Homo sapiens, UniProt O43293).
T3 construct: purchased in-house (SGC Oxford thermal shift panel)
The settings on record: read-out: Tm shift DAPK3. In outline: as §1

Assay [4] has as its target VRK2 (Homo sapiens, UniProt Q86Y07). The settings on record: read-out: Tm shift VRK2. In outline: as §1
Assay [5] addresses T4, IKKb (Homo sapiens, UniProt O14920).
T4 construct: purchased in-house (SGC Oxford thermal shift panel)
T4 sequence (O14920 1-756): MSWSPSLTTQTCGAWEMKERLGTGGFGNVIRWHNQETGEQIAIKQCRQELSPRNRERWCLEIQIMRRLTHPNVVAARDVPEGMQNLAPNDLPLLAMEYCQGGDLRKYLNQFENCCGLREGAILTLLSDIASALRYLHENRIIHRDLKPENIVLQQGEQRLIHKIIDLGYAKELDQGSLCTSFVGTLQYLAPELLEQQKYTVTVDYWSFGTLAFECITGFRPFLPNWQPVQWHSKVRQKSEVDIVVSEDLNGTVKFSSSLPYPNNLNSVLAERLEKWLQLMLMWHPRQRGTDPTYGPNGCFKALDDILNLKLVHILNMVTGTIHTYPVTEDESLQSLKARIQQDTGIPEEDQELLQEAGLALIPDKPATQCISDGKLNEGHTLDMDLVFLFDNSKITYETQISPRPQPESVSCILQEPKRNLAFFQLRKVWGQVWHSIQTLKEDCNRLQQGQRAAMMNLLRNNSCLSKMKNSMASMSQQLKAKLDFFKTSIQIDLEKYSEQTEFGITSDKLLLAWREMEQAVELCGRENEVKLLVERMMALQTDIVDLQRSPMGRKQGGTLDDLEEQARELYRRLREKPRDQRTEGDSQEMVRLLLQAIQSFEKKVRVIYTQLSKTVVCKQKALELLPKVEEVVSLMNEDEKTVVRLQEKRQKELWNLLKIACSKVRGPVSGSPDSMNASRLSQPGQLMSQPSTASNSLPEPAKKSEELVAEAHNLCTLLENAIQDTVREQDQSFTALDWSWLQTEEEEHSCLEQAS
The settings on record: read-out: Tm shift IKKb. The method, boiled down: as §1

The target of assay [6] is T5, RSK1-C (Homo sapiens, UniProt Q15418).
T5 construct: RSK1-C 0.7 4.0 1.6 1.9 1.9 0.3 0.9
The settings on record: read-out: Tm shift RSK1-C. In outline:
as §1

Assay [7] has as its target CaMKK1 (Homo sapiens, UniProt Q8N5S9). The settings on record: read-out: Tm shift CaMKK1. The method, boiled down:
as §1

Assay [8] has as its target ZAK (Homo sapiens, UniProt Q9NYL2). The conditions noted are these: read-out: Tm shift ZAK. In outline:
as §1

Assay [9] addresses T6, BMX (Homo sapiens, UniProt P51813).
T6 sequence (P51813 1-675): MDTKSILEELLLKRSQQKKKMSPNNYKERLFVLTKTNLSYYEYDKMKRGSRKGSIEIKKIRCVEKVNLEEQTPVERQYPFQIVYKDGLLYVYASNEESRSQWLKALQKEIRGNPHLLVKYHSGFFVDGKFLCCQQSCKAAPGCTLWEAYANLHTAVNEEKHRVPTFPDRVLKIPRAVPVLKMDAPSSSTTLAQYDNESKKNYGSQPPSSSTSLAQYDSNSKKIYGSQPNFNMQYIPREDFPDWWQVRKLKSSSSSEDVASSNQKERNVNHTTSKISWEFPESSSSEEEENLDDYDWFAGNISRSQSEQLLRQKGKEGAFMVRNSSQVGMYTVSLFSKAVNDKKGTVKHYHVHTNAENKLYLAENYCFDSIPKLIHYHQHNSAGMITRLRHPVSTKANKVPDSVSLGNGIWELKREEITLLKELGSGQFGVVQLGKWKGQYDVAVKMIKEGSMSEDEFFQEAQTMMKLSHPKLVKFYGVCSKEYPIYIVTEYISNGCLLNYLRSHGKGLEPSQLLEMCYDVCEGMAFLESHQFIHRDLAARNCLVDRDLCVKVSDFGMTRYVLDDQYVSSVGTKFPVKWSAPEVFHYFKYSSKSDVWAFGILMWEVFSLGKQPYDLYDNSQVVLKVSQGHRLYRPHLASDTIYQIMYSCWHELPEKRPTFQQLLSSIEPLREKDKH
The settings on record: read-out: Tm shift BMX. In outline: as §1

Assay [10] addresses T7, PBK (Homo sapiens, UniProt Q96KB5).
T7 construct: purchased in-house (SGC Oxford thermal shift panel)
T7 sequence (Q96KB5 1-322): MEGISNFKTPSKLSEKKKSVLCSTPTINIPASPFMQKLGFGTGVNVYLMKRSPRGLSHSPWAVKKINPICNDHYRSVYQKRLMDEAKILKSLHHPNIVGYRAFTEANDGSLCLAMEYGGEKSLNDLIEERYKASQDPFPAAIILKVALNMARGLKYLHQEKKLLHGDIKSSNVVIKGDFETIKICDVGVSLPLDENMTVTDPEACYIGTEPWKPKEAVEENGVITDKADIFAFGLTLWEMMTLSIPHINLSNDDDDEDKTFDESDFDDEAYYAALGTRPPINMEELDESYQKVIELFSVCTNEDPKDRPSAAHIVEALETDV
The conditions noted are these: read-out: Tm shift PBK. In outline: as §1

The target of assay [11] is STK33 (Homo sapiens, UniProt Q9BYT3). The conditions noted are these: read-out: Tm shift STK33. In outline: as §1
Chain of STK33 (Q9BYT3 whole entry): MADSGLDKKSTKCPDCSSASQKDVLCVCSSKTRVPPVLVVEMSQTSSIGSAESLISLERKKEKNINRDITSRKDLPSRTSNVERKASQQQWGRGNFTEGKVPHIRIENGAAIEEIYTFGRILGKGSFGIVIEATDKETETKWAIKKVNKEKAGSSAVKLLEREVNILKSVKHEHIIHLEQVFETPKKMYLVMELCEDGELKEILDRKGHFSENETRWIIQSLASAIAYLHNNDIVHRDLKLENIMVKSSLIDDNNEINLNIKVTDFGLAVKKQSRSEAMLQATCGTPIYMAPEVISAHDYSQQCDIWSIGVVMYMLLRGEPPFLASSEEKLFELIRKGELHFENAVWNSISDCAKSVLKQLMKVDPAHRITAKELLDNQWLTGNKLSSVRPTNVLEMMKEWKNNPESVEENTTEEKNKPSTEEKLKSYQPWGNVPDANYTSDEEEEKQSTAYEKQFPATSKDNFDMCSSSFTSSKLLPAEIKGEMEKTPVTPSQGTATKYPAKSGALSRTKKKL

Chain of CaMKK1 (Q8N5S9 whole entry): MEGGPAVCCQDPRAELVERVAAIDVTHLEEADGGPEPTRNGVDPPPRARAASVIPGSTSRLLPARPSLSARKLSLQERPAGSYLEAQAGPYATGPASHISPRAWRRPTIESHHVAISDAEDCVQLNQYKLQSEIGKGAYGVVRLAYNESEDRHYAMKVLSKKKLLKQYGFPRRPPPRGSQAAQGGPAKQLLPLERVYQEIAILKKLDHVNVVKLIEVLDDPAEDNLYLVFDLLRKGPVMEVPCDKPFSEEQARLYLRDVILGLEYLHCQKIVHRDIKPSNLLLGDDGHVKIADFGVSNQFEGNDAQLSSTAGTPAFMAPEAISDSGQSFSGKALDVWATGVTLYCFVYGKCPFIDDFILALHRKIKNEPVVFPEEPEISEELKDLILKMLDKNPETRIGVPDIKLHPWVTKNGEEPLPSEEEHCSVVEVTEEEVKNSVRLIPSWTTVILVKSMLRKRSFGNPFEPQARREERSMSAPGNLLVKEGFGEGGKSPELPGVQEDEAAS
T3 sequence (O43293 whole entry): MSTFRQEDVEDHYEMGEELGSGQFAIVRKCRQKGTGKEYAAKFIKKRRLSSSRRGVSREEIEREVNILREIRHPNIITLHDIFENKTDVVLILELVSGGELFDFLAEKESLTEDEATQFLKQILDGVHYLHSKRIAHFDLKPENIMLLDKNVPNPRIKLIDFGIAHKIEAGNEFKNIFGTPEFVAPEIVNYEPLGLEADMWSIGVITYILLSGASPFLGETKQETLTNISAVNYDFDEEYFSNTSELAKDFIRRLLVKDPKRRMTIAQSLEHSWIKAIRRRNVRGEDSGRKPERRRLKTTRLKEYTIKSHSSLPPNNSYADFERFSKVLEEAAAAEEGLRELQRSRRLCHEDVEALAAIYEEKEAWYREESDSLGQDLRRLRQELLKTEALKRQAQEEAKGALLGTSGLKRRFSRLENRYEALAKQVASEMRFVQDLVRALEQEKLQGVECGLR
T1 sequence (Q15349 415-672 limits assumed): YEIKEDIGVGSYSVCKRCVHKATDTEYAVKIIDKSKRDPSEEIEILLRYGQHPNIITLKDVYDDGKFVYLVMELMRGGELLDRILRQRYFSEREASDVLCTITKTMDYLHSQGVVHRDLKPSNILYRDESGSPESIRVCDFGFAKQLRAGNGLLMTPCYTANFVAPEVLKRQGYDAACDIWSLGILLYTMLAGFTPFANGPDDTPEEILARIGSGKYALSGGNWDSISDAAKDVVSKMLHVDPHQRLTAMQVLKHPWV
Chain of VRK2 (Q86Y07 whole entry): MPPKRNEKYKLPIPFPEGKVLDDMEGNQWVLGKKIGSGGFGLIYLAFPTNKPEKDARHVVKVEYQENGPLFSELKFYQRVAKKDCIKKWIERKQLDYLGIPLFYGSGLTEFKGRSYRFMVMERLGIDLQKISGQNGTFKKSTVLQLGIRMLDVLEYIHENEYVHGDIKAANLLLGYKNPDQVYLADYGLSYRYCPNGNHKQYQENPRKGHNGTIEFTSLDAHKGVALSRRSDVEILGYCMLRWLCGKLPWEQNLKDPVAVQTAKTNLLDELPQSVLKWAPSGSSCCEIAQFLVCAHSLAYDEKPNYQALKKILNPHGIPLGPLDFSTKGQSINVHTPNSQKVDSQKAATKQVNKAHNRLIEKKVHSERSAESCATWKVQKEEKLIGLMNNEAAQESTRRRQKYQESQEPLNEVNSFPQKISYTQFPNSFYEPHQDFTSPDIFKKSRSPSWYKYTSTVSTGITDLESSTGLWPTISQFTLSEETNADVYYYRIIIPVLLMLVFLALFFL
Chain of ZAK (Q9NYL2 whole entry): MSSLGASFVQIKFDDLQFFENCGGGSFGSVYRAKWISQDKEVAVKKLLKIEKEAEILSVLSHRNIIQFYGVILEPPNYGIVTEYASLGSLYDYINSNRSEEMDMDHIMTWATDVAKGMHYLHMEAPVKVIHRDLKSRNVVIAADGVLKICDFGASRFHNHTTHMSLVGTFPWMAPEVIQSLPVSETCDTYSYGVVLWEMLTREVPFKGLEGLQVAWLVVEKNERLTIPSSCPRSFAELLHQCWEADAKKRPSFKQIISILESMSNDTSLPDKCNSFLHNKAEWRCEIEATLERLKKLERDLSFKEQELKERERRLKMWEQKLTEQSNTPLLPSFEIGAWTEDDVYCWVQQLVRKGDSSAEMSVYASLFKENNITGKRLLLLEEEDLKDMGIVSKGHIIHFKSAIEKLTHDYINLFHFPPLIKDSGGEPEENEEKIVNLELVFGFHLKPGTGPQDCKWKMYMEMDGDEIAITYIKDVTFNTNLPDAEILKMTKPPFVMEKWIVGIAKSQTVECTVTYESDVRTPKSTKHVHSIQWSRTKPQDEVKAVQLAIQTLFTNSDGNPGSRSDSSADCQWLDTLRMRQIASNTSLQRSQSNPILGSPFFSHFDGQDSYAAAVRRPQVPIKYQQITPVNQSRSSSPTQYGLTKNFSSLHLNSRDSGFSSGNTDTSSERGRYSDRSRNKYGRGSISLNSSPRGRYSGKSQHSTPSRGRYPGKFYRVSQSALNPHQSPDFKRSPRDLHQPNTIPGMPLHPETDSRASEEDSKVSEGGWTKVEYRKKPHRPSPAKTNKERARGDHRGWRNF
T5 sequence (Q15418 418-675 limits assumed): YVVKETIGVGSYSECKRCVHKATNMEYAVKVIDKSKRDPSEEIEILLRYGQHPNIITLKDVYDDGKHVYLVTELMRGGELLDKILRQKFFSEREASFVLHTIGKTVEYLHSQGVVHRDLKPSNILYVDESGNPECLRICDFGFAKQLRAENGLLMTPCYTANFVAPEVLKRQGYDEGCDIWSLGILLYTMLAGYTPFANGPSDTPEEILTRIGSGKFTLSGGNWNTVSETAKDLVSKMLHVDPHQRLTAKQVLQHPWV

Regarding `CCOC(=O)c1c(/C(C#N)=C\N)c2ccc(Cl)c(Cl)c2n1C` [KH-CB19, (E)-Ethyl 3-(2-Amino-1-Cyanovinyl)-6,7-Dichloro-1-Methyl-1H-Indole-2-Carboxylate], the ΔTm at 10 µM in assay [1] is 0.7 °C; in [2] it was 0 °C; in [3] it was 2.2 °C; in assay [4] it was -0.1 °C; in [5], -0.1 °C; in assay [6] it was 1.6 °C. For the same molecule, the ΔTm at 10 µM in assay [7] is -0.1 °C; in assay [8], -0.3 °C; in assay [9], 0.2 °C; in [10], -0.3 °C; in [11], 0.3 °C.
Take `NC1=NC(=O)/C(=C2\CCNC(=O)c3[nH]c(Br)cc32)N1` [Hymenialdisine, hymenialdisine, reference compound]: the ΔTm at 10 µM turned out to be 4.5 °C in assay [1] (inhibitor 10 μM); 2 °C in assay [2] (inhibitor 10 μM); 7.6 °C in assay [3] (inhibitor 10 μM); 0.8 °C in [4] (inhibitor 10 μM); 0.7 °C in assay [5] (inhibitor 10 μM); 0.7 °C in assay [6] (inhibitor 10 μM). Besides, the ΔTm at 10 µM in assay [7] (inhibitor 10 μM) was 0.2 °C; in [8] (inhibitor 10 μM), 1.7 °C; in assay [9] (inhibitor 10 μM), -0.1 °C; in assay [10] (inhibitor 10 μM), -0.4 °C; in assay [11] (inhibitor 10 μM), 3.9 °C.
`CCOC(=O)c1c(C(C#N)=CN(C)C)c2ccc(Cl)c(Cl)c2n1C` (mixture of isomers) [compound 2, (E/Z)-Ethyl 6,7-Dichloro-3-[1-Cyano-2-(Dimethylamino)Vinyl]-1-Methyl-1H-Indole-2-Carboxylate]: the ΔTm at 10 µM in assay [1] (inhibitor 10 μM) stood at 0.1 °C; in assay [2] (inhibitor 10 μM), 0.2 °C; in assay [3] (inhibitor 10 μM), 0.3 °C; in [4] (inhibitor 10 μM) it was 0.2 °C; in assay [5] (inhibitor 10 μM), 0.6 °C; in assay [6] (inhibitor 10 μM) it was 0.3 °C. For the same molecule, the ΔTm at 10 µM in [7] (inhibitor 10 μM) is 0.3 °C; in [8] (inhibitor 10 μM) it was -0.4 °C; in [9] (inhibitor 10 μM), -0.2 °C; in [10] (inhibitor 10 μM) it was -0.9 °C; in assay [11] (inhibitor 10 μM) it was 0.7 °C.
As for `CCOC(=O)c1c(C(C#N)=CN)c2ccc(Cl)c(Cl)c2n1C` (mixture of isomers) [KH-CB20, (E/Z)-Ethyl 3-(2-Amino-1-Cyanovinyl)-6,7-Dichloro-1-Methyl-1H-Indole-2-Carboxylate], the ΔTm at 10 µM in assay [1] came out at 0.4 °C; in [2], 0.2 °C; in [3] it was 2.2 °C; in assay [4], 0.1 °C; in [5], 0.1 °C; in assay [6], 1.9 °C. The ΔTm at 10 µM in [7] is 0.6 °C; in assay [8] it was -0.1 °C; in assay [9], 0.2 °C; in assay [10] it was -0.1 °C; in assay [11], 0.8 °C.
With `Cn1c2c(Cl)c(Cl)ccc2c2c(C#N)c[nH]c(=O)c21` [compound 3, 7,8-Dichloro-9-Methyl-1-Oxo-2,9-Dihydro-1H-Pyrido[3,4-b]Indole-4-Carbonitrile], the ΔTm at 10 µM in [1] (inhibitor 10 μM) is 0.5 °C; in [2] (inhibitor 10 μM) it was -0.4 °C; in assay [3] (inhibitor 10 μM) it was 2 °C; in assay [4] (inhibitor 10 μM), 0.1 °C; in assay [5] (inhibitor 10 μM), 0.5 °C; in [6] (inhibitor 10 μM), 1.9 °C. In addition, the ΔTm at 10 µM in assay [7] (inhibitor 10 μM) was 0.4 °C; in assay [8] (inhibitor 10 μM) it was -0.2 °C; in [9] (inhibitor 10 μM), -0.1 °C; in assay [10] (inhibitor 10 μM), -0.4 °C; in assay [11] (inhibitor 10 μM), 1.1 °C.
